Results: ChEMBL document CHEMBL1201862, “PubChem BioAssay data set” (2004)
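Briefly, cells in 96-well plates were exposed to five compound concentrations for 48 h, and endpoints were estimated by linear interpolation. Abbreviation: GI50, concentration required for 50% inhibition of growth.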 Calls of active or inactive are those of the source. No stated cut-off is given here; in the data, active = GI50 up to about 1.1 µM and inactive = higher.

Key:
Assay in all cases: DTP human tumour cell line panel, 48 h
UACC-62 = test system: UACC-62
Malme-3M = test system: Malme-3M
RXF 393 = test system: RXF 393
SK-MEL-5 = test system: SK-MEL-5
A549 = test system: A549
MDA-N = test system: MDA-N
SN12C = test system: SN12C
M14 = test system: M14
IGROV-1 = test system: IGROV-1
HCC 2998 = test system: HCC 2998
NCI-H460 = test system: NCI-H460
RPMI-8226 = test system: RPMI-8226
COLO 205 = test system: COLO 205
786-0 = test system: 786-0
U-251 = test system: U-251
MDA-MB-231 = test system: MDA-MB-231
ACHN = test system: ACHN
DU-145 = test system: DU-145
KM12 = test system: KM12
MCF7 = test system: MCF7

Measured: GI50

N#CCCCC[N+]12CN3CN(CN(C3)C1)C2
inactive: UACC-62 > 100 µM | Malme-3M > 100 µM | RXF 393 > 100 µM | SK-MEL-5 > 100 µM | A549 > 100 µM | MDA-N > 100 µM | SN12C > 100 µM | M14 > 100 µM | IGROV-1 > 100 µM | HCC 2998 > 100 µM | NCI-H460 > 100 µM | RPMI-8226 40.8 µM | COLO 205 > 100 µM | 786-0 > 100 µM | U-251 > 100 µM | MDA-MB-231 > 100 µM | ACHN > 100 µM | DU-145 > 100 µM | KM12 > 100 µM | MCF7 45.7 µM

O=c1[nH]nc(-c2ccccc2)n1O
inactive: UACC-62 > 100 µM | Malme-3M > 100 µM | RXF 393 > 100 µM | SK-MEL-5 > 100 µM | A549 > 100 µM | MDA-N > 100 µM | SN12C > 100 µM | M14 > 100 µM | IGROV-1 > 100 µM | HCC 2998 > 100 µM | NCI-H460 > 100 µM | RPMI-8226 > 100 µM | COLO 205 > 100 µM | 786-0 > 100 µM | U-251 > 100 µM | MDA-MB-231 > 100 µM | ACHN > 100 µM | DU-145 > 100 µM | KM12 > 100 µM | MCF7 > 100 µM

NC(Cc1ccnnc1)C(=O)O (stereo not given)
inactive: UACC-62 > 100 µM | Malme-3M > 100 µM | RXF 393 > 100 µM | SK-MEL-5 > 100 µM | A549 > 100 µM | MDA-N > 100 µM | SN12C > 100 µM | M14 > 100 µM | IGROV-1 > 100 µM | HCC 2998 > 100 µM | NCI-H460 > 100 µM | RPMI-8226 > 100 µM | COLO 205 > 100 µM | 786-0 > 100 µM | U-251 > 100 µM | MDA-MB-231 > 100 µM | ACHN > 100 µM | DU-145 > 100 µM | KM12 > 100 µM | MCF7 > 100 µM

CCOc1cc2c(cc1O)CC[C@@H]1[C@@H]2CC[C@]2(C)C(N)CC[C@@H]12 (stereo not given in full)
inactive: UACC-62 3.91 µM | Malme-3M 11.8 µM | RXF 393 1.21 µM | SK-MEL-5 3.56 µM | A549 3.3 µM | MDA-N 1.44 µM | SN12C 4.09 µM | M14 4.05 µM | IGROV-1 3.78 µM | HCC 2998 2.22 µM | NCI-H460 2.91 µM | RPMI-8226 3.01 µM | COLO 205 4.49 µM | 786-0 3.5 µM | U-251 2.89 µM | MDA-MB-231 2.12 µM | ACHN 4.58 µM | DU-145 2.36 µM | KM12 1.58 µM | MCF7 3.37 µM

Cc1ccc([N+](=O)[O-])c2c(NCCC[N+](C)(C)[O-])ccnc12
inactive: UACC-62 > 10 µM | Malme-3M 44 µM | RXF 393 34.4 µM | SK-MEL-5 12.2 µM | A549 33.2 µM | MDA-N > 100 µM | SN12C > 100 µM | M14 40.3 µM | IGROV-1 20.6 µM | HCC 2998 23.4 µM | NCI-H460 21.3 µM | RPMI-8226 31 µM | COLO 205 34 µM | 786-0 > 100 µM | U-251 83.6 µM | MDA-MB-231 > 100 µM | ACHN 61.5 µM | DU-145 57.8 µM | KM12 40.1 µM | MCF7 14.9 µM

O=C(O)CC(Cc1ccccc1Cl)C(=O)O (stereo not given)
inactive: UACC-62 > 100 µM | Malme-3M > 100 µM | RXF 393 > 100 µM | SK-MEL-5 > 100 µM | A549 > 100 µM | MDA-N > 100 µM | SN12C > 100 µM | M14 > 100 µM | IGROV-1 > 100 µM | HCC 2998 > 100 µM | NCI-H460 > 100 µM | RPMI-8226 > 100 µM | COLO 205 > 100 µM | 786-0 > 100 µM | U-251 > 100 µM | MDA-MB-231 > 100 µM | ACHN > 100 µM | DU-145 > 100 µM | KM12 > 100 µM | MCF7 > 100 µM

COc1cc(-c2oc3c(OC)cc(OC)c(O)c3c(=O)c2OC)cc(OC)c1OC
inactive: UACC-62 23.6 µM | Malme-3M 5.97 µM | RXF 393 8.28 µM | SK-MEL-5 20.7 µM | A549 > 100 µM | MDA-N > 100 µM | SN12C > 100 µM | M14 > 100 µM | IGROV-1 85.5 µM | HCC 2998 > 100 µM | NCI-H460 4.47 µM | RPMI-8226 > 100 µM | COLO 205 > 100 µM | 786-0 4.02 µM | U-251 4.65 µM | MDA-MB-231 2.84 µM | ACHN 8.49 µM | DU-145 32.7 µM | KM12 > 100 µM | MCF7 97.1 µM
